This is an account of results in ChEMBL document CHEMBL1140489, “New biologically active epidioxysterols from Stereum hirsutum” (2007).

In brackets after ≈: the same amount, converted by molar mass.

Type in all cases: functional
Test [1] relates to Mycobacterium tuberculosis. Put plainly: Antibacterial activity against Mycobacterium tuberculosis H37Rv by microdilution resazurin assay.
The subject of test [2] is Candida. Put plainly: Antifungal activity against Candida sp.
Test [3] deals with Pseudomonas aeruginosa. The test is described as follows: Antibacterial activity against Pseudomonas aeruginosa ATCC 27753.
In test [4] the test system is Escherichia coli. The test is described as follows: Antibacterial activity against Escherichia coli ATCC […].
Test [5] relates to Staphylococcus aureus. The test is described as follows: Antibacterial activity against staphylococcus aureus ATCC 25923.

Take `CC(C)C/C=C/[C@@H](C)[C@H]1CC[C@@H]2[C@]1(C)CC=C1[C@]23C=C[C@]2(C[C@@H](O)CC[C@]12C)OO3`: the MIC in test [1] is 16 µg/mL (≈ 38.8 µM); in test [2] it was above 512 µg/mL; in test [3], above 512 µg/mL; in test [4] it was above 512 µg/mL; in test [5] it was above 512 µg/mL.
For the compound `Cn1c([N+](=O)[O-])cnc1C#Cc1ccnc(N)n1`, the MIC in test [1] was 16 µg/mL (≈ 65.5 µM); in test [2], above 512 µg/mL; in test [3] it was above 512 µg/mL; in test [4] it was above 512 µg/mL; in test [5] it was above 512 µg/mL.
Regarding `CC[C@@H](/C=C/[C@@H](C)[C@H]1CC[C@@H]2[C@]1(C)CC[C@H]1[C@]23C=C[C@]2(C[C@@H](O)CC[C@]12C)OO3)C(C)C`, the MIC is 64 µg/mL (≈ 145 µM) in test [1]; above 512 µg/mL in test [2]; above 512 µg/mL in test [3]; above 512 µg/mL in test [4]; above 512 µg/mL in test [5].
For `CC(C)[C@@H](C)/C=C/[C@@H](C)[C@H]1CC[C@@H]2[C@]1(C)CC=C1[C@]23C=C[C@]2(C[C@@H](O)CC[C@]12C)OO3`, the MIC in test [1] is 16 µg/mL (≈ 37.5 µM); in test [2], above 512 µg/mL; in test [3], above 512 µg/mL; in test [4], above 512 µg/mL; in test [5] it was above 512 µg/mL.
For `O=C(O)c1cn(C2CC2)c2cc(N3CCNCC3)c(F)cc2c1=O` [CIPROFLOXACIN], the results for the MIC in test [1], in test [3] and in test [5] were 0.5 µg/mL (≈ 1.51 µM), 1 µg/mL (≈ 3.02 µM) and 0.5 µg/mL (≈ 1.51 µM), respectively.
As for `CC(C)[C@@H](C)/C=C/[C@@H](C)[C@H]1CC[C@@H]2[C@]1(C)CC[C@H]1[C@]23C=C[C@]2(C[C@@H](O)CC[C@]12C)OO3` [ERGOSTEROL PEROXIDE], the MIC is 64 µg/mL (≈ 149 µM) in test [1]; above 512 µg/mL in test [2]; above 512 µg/mL in test [3]; above 512 µg/mL in test [4]; above 512 µg/mL in test [5].
`Clc1ccc(COC(Cn2ccnc2)c2ccc(Cl)cc2Cl)c(Cl)c1` (centres undefined) [MICONAZOLE] yielded an MIC in test [2] of 0.25 µg/mL (≈ 0.601 µM).
